Converted amounts (≈) assume the structure as drawn.
How the values were obtained:
[1] = Aqueous solubility of the compound in phosphate buffered saline after 90 mins by laser nephelometry at pH 4; format: physicochemical
[2] = Stability in cortical neurons assessed as drug metabolism at 5 uM; format: ADME; conditions: cortical neurone
[3] = Neuroprotective activity in cortical neurons assessed as reduction in glutamate-induced cell death at 5 uM incubated for 24 hrs prior to glutamate-challenge measured after 24 hrs by MTT assay; format: functional, Cortical neurone; design: scale not given: the % may be the effect or the level left
[4] = Half life in aqueous media at pH 7; format: physicochemical; conditions: for half-life: aqueous media; for t1/2: buffer
Rattus norvegicus [5] = assay: Neuroprotective activity in rat assessed as reduction in bilateral cortical contusion-induced cerebral edema at 4 mg/kg, iv administered as single dose 1 hr post-injury measured after 24 hrs relative to untreated; format: functional; design: scale not given: the % may be the effect or the level left
in vivo = conditions: Sprague-Dawley, rat, plasma, iv, 4 mg/kg
Description: Half life in Sprague-Dawley rat plasma at 4 mg/kg, iv

Rattus norvegicus [6] = assay: Drug metabolism in Sprague-Dawley rat plasma assessed as progesterone formation at 4 mg/kg, iv; format: ADME, organism-based; design: dose 4 mg/kg, route intravenous; conditions: in vivo
[7] = Aqueous solubility of the compound in phosphate buffered saline after 90 mins by laser nephelometry at pH 7.4; format: physicochemical
[8] = Drug metabolism in rat liver S9 fraction assessed as progesterone formation; format: ADME, subcellular
Liver = assay: Metabolic stability in rat liver S9 fraction assessed as compound remaining; format: ADME, subcellular
Rattus norvegicus [9] = assay: Drug metabolism in Sprague-Dawley rat assessed as free oxime formation at 10 mg/kg, im administered as single dose by LC-MS/MS analysis; format: ADME, organism-based; design: dose 10 mg/kg, route intramuscular; conditions: in vivo
Rattus norvegicus [10] = assay: Metabolic stability in Sprague-Dawley rat assessed as compound remaining at 10 mg/kg, iv administered as single dose by LC-MS/MS analysis; format: ADME, organism-based; design: dose 10 mg/kg, route intravenous; conditions: in vivo
[11] = Drug metabolism in rat liver S9 fraction assessed as free oxime formation; format: ADME, subcellular
Plasma [12] = assay: Drug metabolism human plasma assessed as free oxime formation at 10 uM by LC-MS/MS analysis; format: ADME, cell-free
Rattus norvegicus [13] = assay: Drug metabolism in Sprague-Dawley rat assessed as progesterone formation at 10 mg/kg, iv administered as single dose by LC-MS/MS analysis; format: ADME, organism-based; design: dose 10 mg/kg, route intravenous; conditions: in vivo
Rattus norvegicus [14] = assay: Neuroprotective activity in rat assessed as reduction in bilateral cortical contusion-induced cerebral edema at 8 mg/kg, ip administered at 1 hr post-injury followed by 8 mg/kg, sc administered 6 hrs post-injury measured after 24 hrs relative to untreated control; format: functional; design: scale not given: the % may be the effect or the level left
Rattus norvegicus [15] = assay: Drug metabolism in Sprague-Dawley rat assessed as compound remaining at 10 mg/kg, im administered as single dose by LC-MS/MS analysis; format: ADME, organism-based; design: dose 10 mg/kg, route intramuscular; conditions: in vivo
Rattus norvegicus [16] = assay: Drug metabolism in Sprague-Dawley rat assessed as free oxime formation at 10 mg/kg, iv administered as single dose by LC-MS/MS analysis; format: ADME, organism-based; design: dose 10 mg/kg, route intravenous; conditions: in vivo
Plasma [17] = assay: Drug metabolism rat plasma assessed as free oxime formation at 10 uM by LC-MS/MS analysis; format: ADME, cell-free
Rattus norvegicus [18] = assay: Drug metabolism in Sprague-Dawley rat assessed as progesterone formation at 10 mg/kg, im administered as single dose by LC-MS/MS analysis; format: ADME, organism-based; design: dose 10 mg/kg, route intramuscular; conditions: in vivo
[19] = Neuroprotective activity in cortical neurons assessed as reduction in glutamate-induced cell death at 10 uM incubated for 24 hrs prior to glutamate-challenge measured after 24 hrs by MTT assay; format: functional, Cortical neurone; design: scale not given: the % may be the effect or the level left
[20] = Neuroprotective activity in cortical neurons assessed as reduction in glutamate-induced cell death at 1 uM incubated for 24 hrs prior to glutamate-challenge measured after 24 hrs by MTT assay; format: functional, Cortical neurone; design: scale not given: the % may be the effect or the level left

SMILES | solubility kinetic at 1.5 h [1] | Stability [2] | Activity [3] | half-life [4] | solubility kinetic at 1.5 h [7] | other results
CC(=O)[C@H]1CC[C@H]2[C@@H]3CCC4=C/C(=N/O)CC[C@]4(C)[C@H]3CC[C@]12C | < 45 µM | Stable | 21% | > 240 h | < 45 µM | Activity (Rattus norvegicus [5]): 60%; half-life (in vivo): 2.7 h; Drug metabolism (Rattus norvegicus [6]): Not Active
C/C(=N\O)[C@H]1CC[C@H]2[C@@H]3CCC4=CC(=O)CC[C@]4(C)[C@H]3CC[C@]12C |  | Stable |  |  |  | Drug metabolism [8]: Not Active; Stability (Liver): Stable
CO/N=C(\C)[C@H]1CC[C@H]2[C@@H]3CCC4=CC(=O)CC[C@]4(C)[C@H]3CC[C@]12C | < 25 µM | Stable |  | > 240 h | < 25 µM | 
C/C(=N\OCCN1CCOCC1)[C@H]1CC[C@H]2[C@@H]3CCC4=CC(=O)CC[C@]4(C)[C@H]3CC[C@]12C | > 450 µM | Stable | 26% | > 240 h | 108 µM (≈ 47.8 µg/mL) | 
CC(=O)O/N=C(\C)[C@H]1CC[C@H]2[C@@H]3CCC4=CC(=O)CC[C@]4(C)[C@H]3CC[C@]12C | 180 µM (≈ 66.9 µg/mL) | Stable |  |  | 100 µM (≈ 37.2 µg/mL) | 
C/C(=N\OC(=O)[C@@H](N)C(C)C)[C@H]1CC[C@H]2[C@@H]3CCC4=CC(=O)CC[C@]4(C)[C@H]3CC[C@]12C.Cl | > 645 µM | Stable | 24% | 11.3 h | 146 µM | Drug metabolism (Rattus norvegicus [9]): Active; Stability (Rattus norvegicus [10]): Unstable; Drug metabolism [11]: Active; Drug metabolism (Plasma [12]): Active; Drug metabolism (Rattus norvegicus [13]): Active; Activity (Rattus norvegicus [14]): 56%; Drug metabolism [8]: Active; Stability (Rattus norvegicus [15]): Unstable; Drug metabolism (Rattus norvegicus [16]): Active; Drug metabolism (Plasma [17]): Active; Drug metabolism (Rattus norvegicus [18]): Not Active
C/C(=N\OC(=O)[C@@H]1CCCN1)[C@H]1CC[C@H]2[C@@H]3CCC4=CC(=O)CC[C@]4(C)[C@H]3CC[C@]12C | 395 µM (≈ 169 µg/mL) | Stable | 21% |  | 34 µM (≈ 14.5 µg/mL) | Activity [19]: 33%
C/C(=N\OC(=O)[C@@H]1CCC[N+]1(C)C)[C@H]1CC[C@H]2[C@@H]3CCC4=CC(=O)CC[C@]4(C)[C@H]3CC[C@]12C.[I-] | 345 µM | Stable |  | 0.833 h | 51 µM | 
C/C(=N\OC(=O)CN(C)C)[C@H]1CC[C@H]2[C@@H]3CCC4=CC(=O)CC[C@]4(C)[C@H]3CC[C@]12C | 449 µM (≈ 186 µg/mL) | Stable |  |  | 171 µM (≈ 70.9 µg/mL) | 
C/C(=N\OC(=O)C[N+](C)(C)C)[C@H]1CC[C@H]2[C@@H]3CCC4=CC(=O)CC[C@]4(C)[C@H]3CC[C@]12C.[I-] | > 540 µM | Stable |  | 0.933 h | 45 µM | 
C/C(=N\OC(=O)CN1CCOCC1)[C@H]1CC[C@H]2[C@@H]3CCC4=CC(=O)CC[C@]4(C)[C@H]3CC[C@]12C | 215 µM (≈ 98.2 µg/mL) | Stable |  |  | 215 µM (≈ 98.2 µg/mL) | 
C/C(=N\OC(=O)CN1CCN(C)CC1)[C@H]1CC[C@H]2[C@@H]3CCC4=CC(=O)CC[C@]4(C)[C@H]3CC[C@]12C | 153 µM (≈ 71.9 µg/mL) | Stable |  | 70.6 h | 145 µM (≈ 68.1 µg/mL) | 
C/C(=N\OC(=O)c1cccnc1)[C@H]1CC[C@H]2[C@@H]3CCC4=CC(=O)CC[C@]4(C)[C@H]3CC[C@]12C | < 35 µM | Stable | 20% |  | < 35 µM | t1/2 [4]: ND(Insoluble)
C/C(=N\OC(=O)c1ccc[n+](C)c1)[C@H]1CC[C@H]2[C@@H]3CCC4=CC(=O)CC[C@]4(C)[C@H]3CC[C@]12C.[I-] | 349 µM | Stable | 0% | 3.1 h | 212 µM | Activity [20]: 14%
C/C(=N\OC(=O)c1ccc(CN)cc1)[C@H]1CC[C@H]2[C@@H]3CCC4=CC(=O)CC[C@]4(C)[C@H]3CC[C@]12C.Cl | < 30 µM | Stable |  |  | < 30 µM | t1/2 [4]: ND(Insoluble)
C/C(=N\OC(=O)c1ccc(CN2CCN(C)CC2)cc1)[C@H]1CC[C@H]2[C@@H]3CCC4=CC(=O)CC[C@]4(C)[C@H]3CC[C@]12C | < 30 µM | Stable |  |  | < 30 µM | t1/2 [4]: ND(Insoluble)
C/C(=N\OC(=O)C1CCNCC1)[C@H]1CC[C@H]2[C@@H]3CCC4=CC(=O)CC[C@]4(C)[C@H]3CC[C@]12C.Cl | 247 µM | Stable | 4% | 94.8 h | 247 µM | Activity [19]: 24%
C/C(=N\OC(=O)C1CCN(C)CC1)[C@H]1CC[C@H]2[C@@H]3CCC4=CC(=O)CC[C@]4(C)[C@H]3CC[C@]12C | > 660 µM | Stable |  |  | 108 µM (≈ 49.1 µg/mL) | 
C/C(=N\OC(=O)C1CC[N+](C)(C)CC1)[C@H]1CC[C@H]2[C@@H]3CCC4=CC(=O)CC[C@]4(C)[C@H]3CC[C@]12C.[I-] | > 500 µM | Stable | 0% | 70.6 h | > 500 µM | 
C/C(=N\OC(=O)[C@@H]1CCCNC1)[C@H]1CC[C@H]2[C@@H]3CCC4=CC(=O)CC[C@]4(C)[C@H]3CC[C@]12C.Cl | > 500 µM | Stable |  | 38.5 h | 428 µM | 
C/C(=N\OC(=O)[C@H]1CCCNC1)[C@H]1CC[C@H]2[C@@H]3CCC4=CC(=O)CC[C@]4(C)[C@H]3CC[C@]12C.Cl | 314 µM | Stable |  | 40.8 h | 314 µM | 
CC(=O)[C@H]1CC[C@H]2[C@@H]3CCC4=C/C(=N/OC(=O)[C@@H](N)C(C)C)CC[C@]4(C)[C@H]3CC[C@]12C.Cl | 322 µM | Stable | 27% | 10.1 h | 172 µM | Drug metabolism (Rattus norvegicus [9]): Active; Stability (Rattus norvegicus [10]): Unstable; Drug metabolism (Plasma [12]): Active; Drug metabolism (Rattus norvegicus [13]): Active; Activity (Rattus norvegicus [14]): 59%; Stability (Rattus norvegicus [15]): Unstable; Drug metabolism (Rattus norvegicus [16]): Active; Drug metabolism (Plasma [17]): Active; Drug metabolism (Rattus norvegicus [18]): Not Active
